Literature values, collected in patent US7851459B2, “Methods for diluting water-stabilized antimicrobial organosilane compositions” (Vitec Speciality Chemicals Limited, priority 2007, dated 2010).

Details: mixture of organosilane and water

SMILES: CCCCCCCCCCCCCCCCCC[N+](C)(C)CCC[Si](OC)(OC)OC.[Cl-] [3-(trimethoxysilyl)propyl-dimethyloctadecyl ammonium chloride]
- time until mixture with water begins to lose effectiveness: four to eight
